Values quoted from earlier work as cited in patent US8309122B2 (Endo Pharmaceuticals Inc., priority 2001, dated 2012).

Settings: metabolized principally in the liver

Q: Which oral bioavailability does the source give for `CN1CC[C@]23c4c5ccc(O)c4O[C@H]2C(=O)CC[C@@]3(O)[C@H]1C5.Cl` [Oxymorphone, 14-hydroxydihydromorphinone hydrochloride] here?
A: about 10%
